Measured values published in US20220289758A1, “7-OXA-3,4-DIAZABICYCLO [4.1.0] HEPT-4-EN-2-ONE COMPOUND AND HERBICIDE” (Nippon Soda Co., Ltd., priority 2019, published 2022).

How the values were obtained:
[1] = test system: Abutilon theophrasti; test: Foliar spraying treatment, weed killing rate; format: in vivo; conditions: 504 h, read-out: herbicidal activity; for pest or weed control at 250 g/ha: foliar spray, 250 g per hectare, after 3 weeks (Table 5); for pest or weed control at 1000 g/ha: foliar spray, 1,000 g per hectare, after 3 weeks (Table 4)
Protocol: (§1) (1) Preparation of Test Emulsion
(§2) POA allylphenyl ether (4.1 parts by weight), POE-POP glycol (1 part by weight), POE sorbitan laurate (0.8 parts by weight), glycerin (2.6 parts by weight), dimethylformamide (65.9 parts by weight), N-methylpyrrolidone (5.1 parts by weight), cyclohexanone (15.4 parts by weight), and aromatic hydrocarbons (5.1 parts by weight) were mixed and dissolved to prepare an emulsion. The compound of the present invention (4 mg) was dissolved in this emulsion (100 μL) to prepare a test emulsion. POA means “polyoxyalkylene”, POE means “polyoxyethylene”, and POP means “polyoxypropylene”.
(§3) (2) Foliar Spraying Treatment
(§4) A 150 cm^2 pot was filled with soil, and seeds of Avena sativa, Matricaria chamomilla, Setaria faberi, Digitaria ciliaris, Abutilon theophrasti and Amaranthus retroflexus were sown into the surface layer which was covered lightly with soil. Thereafter, they were grown in a greenhouse. When each plant grew to a plant height of 2 to 4 cm, the above test emulsion was diluted so that the amount of the active ingredient became a predetermined amount, and sprayed on the foliage with a small sprayer at a spray water volume of 250 L per hectare.
(§5) After 3 weeks, above ground weights of weeds in the untreated and treated areas were measured for each weed, and the weed killing rate was calculated by the following calculation formula.
(§6) (4) Calculation Formula for Weed Killing Rate
(§7) Weed killing rate (%)=[(above ground weight of weeds in untreated area)−(above ground weight of weeds in treated area)/(above ground weight of weeds in untreated area)]×100

[2] = test system: Matricaria chamomilla; test: Foliar spraying treatment, weed killing rate; format: in vivo; conditions: 504 h, read-out: herbicidal activity; for pest or weed control at 250 g/ha: foliar spray, 250 g per hectare, after 3 weeks (Table 7); for pest or weed control at 1000 g/ha: foliar spray, 1,000 g per hectare, after 3 weeks (Table 6)
Protocol: as §1, §2, §3, §4, §5, §6, §7

[3] = test system: Setaria faberi; test: Foliar spraying treatment, weed killing rate; format: in vivo; conditions: 504 h, read-out: herbicidal activity; for pest or weed control at 250 g/ha: foliar spray, 250 g per hectare, after 3 weeks (Table 11); for pest or weed control at 1000 g/ha: foliar spray, 1,000 g per hectare, after 3 weeks (Table 10)
Protocol: as §1, §2, §3, §4, §5, §6, §7

[4] = test system: Amaranthus retroflexus; test: Foliar spraying treatment, weed killing rate; format: in vivo; conditions: 504 h, read-out: herbicidal activity; for pest or weed control at 250 g/ha: foliar spray, 250 g per hectare, after 3 weeks (Table 15); for pest or weed control at 1000 g/ha: foliar spray, 1,000 g per hectare, after 3 weeks (Table 14)
Protocol: as §1, §2, §3, §4, §5, §6, §7

[5] = test system: Digitaria ciliaris; test: Foliar spraying treatment, weed killing rate; format: in vivo; conditions: 504 h, read-out: herbicidal activity; for pest or weed control at 250 g/ha: foliar spray, 250 g per hectare, after 3 weeks (Table 13); for pest or weed control at 1000 g/ha: foliar spray, 1,000 g per hectare, after 3 weeks (Table 12)
Protocol: as §1, §2, §3, §4, §5, §6, §7

`COC12OC1(c1ccc(C(F)(F)F)cc1S(C)(=O)=O)C=NN(C)C2=O` (centres unmarked) [Compound A-1, 1-methoxy-3-methyl-6-(2-(methylsulfonyl)-4-(trifluoromethyl)phenyl)-7-oxa-3,4-diazabicyclo [4.1.0] hept-4-en-2-one] showed a melting point of 128 °C, a pest or weed control at 250 g/ha [1] of at least 80% and a pest or weed control at 1000 g/ha [1] of at least 80%. It also gave a pest or weed control at 250 g/ha [2] of at least 80%, a pest or weed control at 1000 g/ha [2] of at least 80% and a pest or weed control at 250 g/ha [3] of at least 80%. For the same compound, the pest or weed control at 1000 g/ha [3] was at least 80%, the pest or weed control at 250 g/ha [4] was at least 80% and the pest or weed control at 1000 g/ha [4] was at least 80%. The pest or weed control at 250 g/ha [5] was at least 80% and the pest or weed control at 1000 g/ha [5] was at least 80%.

For `COC12OC1(c1ccc(C(F)(F)F)c3c1CCCS3(=O)=O)C=NN(C)C2=O` (centres unmarked) [Compound B-1, 1-methoxy-3-methyl-6-(1,1-dioxido-8-(trifluoromethyl)thiochroman-5-yl)-7-oxa-3,4-diazabicyclo [4.1.0] hept-4-en-2-one], the pest or weed control at 250 g/ha [1] was at least 80%, the pest or weed control at 1000 g/ha [1] was at least 80% and the pest or weed control at 250 g/ha [2] was at least 80%. The pest or weed control at 1000 g/ha [2] was at least 80%, the pest or weed control at 250 g/ha [3] was at least 80% and the pest or weed control at 1000 g/ha [3] was at least 80%. The pest or weed control at 250 g/ha [4] was at least 80%, the pest or weed control at 1000 g/ha [4] was at least 80% and the pest or weed control at 250 g/ha [5] was at least 80%. For the same compound, the pest or weed control at 1000 g/ha [5] was at least 80%.

`CN1N=CC2(c3ccc(C(F)(F)F)c4c3CCCS4(=O)=O)OC2(OCCON2C(=O)c3ccccc3C2=O)C1=O` (centres unmarked) [Compound B-2] showed a pest or weed control at 250 g/ha [1] of at least 80%, a pest or weed control at 250 g/ha [2] of at least 80% and a pest or weed control at 250 g/ha [3] of at least 80%. For the same compound, the pest or weed control at 250 g/ha [4] was at least 80% and the pest or weed control at 250 g/ha [5] was at least 80%.

`CN1N=CC2(c3ccc(C(F)(F)F)c4c3CCCS4(=O)=O)OC2(OCc2ccn(CC(F)(F)F)n2)C1=O` (centres unmarked) [Compound B-3] showed a melting point of 112 to 117 °C, a pest or weed control at 250 g/ha [1] of at least 80% and a pest or weed control at 250 g/ha [3] of at least 80%. For the same compound, the pest or weed control at 250 g/ha [4] was at least 80%.

`COC12OC1(c1ccc(C(F)(F)F)c(N=S3(=O)CCCCC3)c1Cl)C=NN(C)C2=O` (centres unmarked) [Compound B-4] gave a melting point of 158 to 161 °C and a pest or weed control at 250 g/ha [3] of at least 80%.

`COC12OC1(c1ccc(C(F)(F)F)c3c1S(=O)(=O)CCC3)C=NN(C)C2=O` (centres unmarked) [Compound B-5] gave a melting point of 132 to 134 °C, a pest or weed control at 250 g/ha [1] of at least 80% and a pest or weed control at 250 g/ha [2] of at least 80%. The pest or weed control at 250 g/ha [3] was at least 80%, the pest or weed control at 250 g/ha [4] was at least 80% and the pest or weed control at 250 g/ha [5] was at least 80%.

Work on `COC12OC1(c1cc3c(cc1S(C)(=O)=O)CCC3)C=NN(C)C2=O` (centres unmarked) [Compound B-6] yielded a melting point of 150 to 153 °C, a pest or weed control at 250 g/ha [1] of at least 80% and a pest or weed control at 1000 g/ha [1] of at least 80%. It also gave a pest or weed control at 250 g/ha [2] of at least 80%, a pest or weed control at 1000 g/ha [2] of at least 80% and a pest or weed control at 250 g/ha [4] of at least 80%. The pest or weed control at 1000 g/ha [4] was at least 80%, the pest or weed control at 250 g/ha [5] was at least 80% and the pest or weed control at 1000 g/ha [5] was at least 80%.

Work on `COC12OC1(c1cccc3c1CCCS3(=O)=O)C=NN(C)C2=O` (centres unmarked) [Compound B-7] yielded a melting point of 179 to 181 °C, a pest or weed control at 1000 g/ha [1] of at least 80% and a pest or weed control at 250 g/ha [2] of at least 80%. The pest or weed control at 1000 g/ha [2] was at least 80%, the pest or weed control at 1000 g/ha [3] was at least 80% and the pest or weed control at 1000 g/ha [4] was at least 80%. For the same compound, the pest or weed control at 1000 g/ha [5] was at least 80%.

For `COC12OC1(c1ccc(C(F)(F)F)c3c1CCCO3)C=NN(C)C2=O` (centres unmarked) [Compound B-8], the melting point was 153 to 155 °C, the pest or weed control at 1000 g/ha [1] was at least 80% and the pest or weed control at 250 g/ha [4] was at least 80%. The pest or weed control at 1000 g/ha [4] was at least 80%.

Compound `COC12OC1(c1ccc(C(F)(F)F)c3c1CCCCS3(=O)=O)C=NN(C)C2=O` (centres unmarked) [Compound B-9] has a pest or weed control at 250 g/ha [1] of at least 80%, a pest or weed control at 1000 g/ha [1] of at least 80% and a pest or weed control at 250 g/ha [2] of at least 80%. It also gave a pest or weed control at 1000 g/ha [2] of at least 80%, a pest or weed control at 250 g/ha [3] of at least 80% and a pest or weed control at 1000 g/ha [3] of at least 80%. For the same compound, the pest or weed control at 250 g/ha [4] was at least 80%, the pest or weed control at 1000 g/ha [4] was at least 80% and the pest or weed control at 250 g/ha [5] was at least 80%. The pest or weed control at 1000 g/ha [5] was at least 80%.

With `COC12OC1(c1ccc(C(F)(F)F)c3c1CCS3(=O)=O)C=NN(C)C2=O` (centres unmarked) [Compound B-10] the melting point was 172 to 177 °C, the pest or weed control at 250 g/ha [1] was at least 80% and the pest or weed control at 1000 g/ha [1] was at least 80%. The pest or weed control at 250 g/ha [2] was at least 80%, the pest or weed control at 1000 g/ha [2] was at least 80% and the pest or weed control at 250 g/ha [4] was at least 80%. For the same compound, the pest or weed control at 1000 g/ha [4] was at least 80%.

For `COC12OC1(c1cc(C)c3c(c1C)C1(CCS3(=O)=O)OCCO1)C=NN(C)C2=O` (centres unmarked) [Compound B-11], the pest or weed control at 250 g/ha [1] was at least 80%, the pest or weed control at 1000 g/ha [1] was at least 80% and the pest or weed control at 1000 g/ha [2] was at least 80%. The pest or weed control at 1000 g/ha [3] was at least 80%, the pest or weed control at 250 g/ha [4] was at least 80% and the pest or weed control at 1000 g/ha [4] was at least 80%. It also gave a pest or weed control at 250 g/ha [5] of at least 80% and a pest or weed control at 1000 g/ha [5] of at least 80%.

`COC12OC1(c1ccc3c(c1C)S(=O)(=O)CCC3(C)C)C=NN(C)C2=O` (centres unmarked) [Compound B-12] showed a pest or weed control at 1000 g/ha [1] of at least 80%, a pest or weed control at 1000 g/ha [2] of at least 80% and a pest or weed control at 1000 g/ha [4] of at least 80%. It also gave a pest or weed control at 1000 g/ha [5] of at least 80%.

`COC12OC1(c1ccc(C(F)(F)F)c3c1OCCS3(=O)=O)C=NN(C)C2=O` (centres unmarked) [Compound B-13] gave a pest or weed control at 250 g/ha [1] of at least 80%, a pest or weed control at 1000 g/ha [1] of at least 80% and a pest or weed control at 250 g/ha [2] of at least 80%. It also gave a pest or weed control at 1000 g/ha [2] of at least 80%, a pest or weed control at 250 g/ha [4] of at least 80% and a pest or weed control at 1000 g/ha [4] of at least 80%. The pest or weed control at 1000 g/ha [5] was at least 80%.

`COC12OC1(c1ccc(C(F)(F)F)cc1S(C)(=O)=O)C=NN(C1CCCCO1)C2=O` (centres unmarked) [Compound B-14] showed a melting point of 65 to 66 °C, a pest or weed control at 1000 g/ha [3] of at least 80% and a pest or weed control at 250 g/ha [4] of at least 80%. The pest or weed control at 1000 g/ha [4] was at least 80% and the pest or weed control at 1000 g/ha [5] was at least 80%.

`COC12OC1(c1ccc(C(F)(F)F)c(S(C)(=O)=Nc3ccc(Cl)cc3)c1C)C=NN(C)C2=O` (centres unmarked) [Compound B-15] showed a pest or weed control at 250 g/ha [1] of at least 80%, a pest or weed control at 250 g/ha [2] of at least 80% and a pest or weed control at 250 g/ha [3] of at least 80%. The pest or weed control at 250 g/ha [4] was at least 80% and the pest or weed control at 250 g/ha [5] was at least 80%.

`COC12OC1(c1cc(F)c(C(F)(F)F)c3c1CCCS3(=O)=O)C=NN(C)C2=O` (centres unmarked) [Compound B-16] showed a melting point of 205 to 206 °C, a pest or weed control at 1000 g/ha [1] of at least 80% and a pest or weed control at 1000 g/ha [2] of at least 80%. For the same compound, the pest or weed control at 1000 g/ha [3] was at least 80%, the pest or weed control at 1000 g/ha [4] was at least 80% and the pest or weed control at 1000 g/ha [5] was at least 80%.
